Consider nine compounds from ChEMBL document CHEMBL1140078 (J Med Chem, 2008).

The nature of series [1]: in vitro. Particulars: human, liver microsomes. In general terms: Microsomes from liver hold many membrane-bound enzymes, among them those of drug oxidation.
Description: Metabolic stability in human liver microsomes at 10 uM after 30 mins
Series [2] can be described thus: in vitro. Conditions: CD1, mouse, liver microsomes.
Description: Metabolic stability in CD1 mouse liver microsomes at 10 uM after 30 mins
Series [3] can be described thus: Aqueous solubility at pH 7.4 by turbidimetric assay. The series is classed as physicochemical.
A short description of series [4]: in vivo. Conditions: rat, po, 10 mg/kg.
Series [5] in a line: in vivo. Conditions: CD1, mouse, po, 10 mg/kg.
Series [6] concerns the target Phosphatidylinositol 4,5-bisphosphate 3-kinase catalytic subunit alpha isoform (Homo sapiens, UniProt P42336).
Description: Inhibition of human recombinant PI3K p110alpha expressed in Sf9 cells coexpressing p85alpha by radiometric scintillation proximity assay

pIC50: −log10 of the molar value. Bounds are passed on as bounds.

Sequence of Phosphatidylinositol 4,5-bisphosphate 3-kinase catalytic subunit alpha isoform (P42336 whole entry, canonical isoform): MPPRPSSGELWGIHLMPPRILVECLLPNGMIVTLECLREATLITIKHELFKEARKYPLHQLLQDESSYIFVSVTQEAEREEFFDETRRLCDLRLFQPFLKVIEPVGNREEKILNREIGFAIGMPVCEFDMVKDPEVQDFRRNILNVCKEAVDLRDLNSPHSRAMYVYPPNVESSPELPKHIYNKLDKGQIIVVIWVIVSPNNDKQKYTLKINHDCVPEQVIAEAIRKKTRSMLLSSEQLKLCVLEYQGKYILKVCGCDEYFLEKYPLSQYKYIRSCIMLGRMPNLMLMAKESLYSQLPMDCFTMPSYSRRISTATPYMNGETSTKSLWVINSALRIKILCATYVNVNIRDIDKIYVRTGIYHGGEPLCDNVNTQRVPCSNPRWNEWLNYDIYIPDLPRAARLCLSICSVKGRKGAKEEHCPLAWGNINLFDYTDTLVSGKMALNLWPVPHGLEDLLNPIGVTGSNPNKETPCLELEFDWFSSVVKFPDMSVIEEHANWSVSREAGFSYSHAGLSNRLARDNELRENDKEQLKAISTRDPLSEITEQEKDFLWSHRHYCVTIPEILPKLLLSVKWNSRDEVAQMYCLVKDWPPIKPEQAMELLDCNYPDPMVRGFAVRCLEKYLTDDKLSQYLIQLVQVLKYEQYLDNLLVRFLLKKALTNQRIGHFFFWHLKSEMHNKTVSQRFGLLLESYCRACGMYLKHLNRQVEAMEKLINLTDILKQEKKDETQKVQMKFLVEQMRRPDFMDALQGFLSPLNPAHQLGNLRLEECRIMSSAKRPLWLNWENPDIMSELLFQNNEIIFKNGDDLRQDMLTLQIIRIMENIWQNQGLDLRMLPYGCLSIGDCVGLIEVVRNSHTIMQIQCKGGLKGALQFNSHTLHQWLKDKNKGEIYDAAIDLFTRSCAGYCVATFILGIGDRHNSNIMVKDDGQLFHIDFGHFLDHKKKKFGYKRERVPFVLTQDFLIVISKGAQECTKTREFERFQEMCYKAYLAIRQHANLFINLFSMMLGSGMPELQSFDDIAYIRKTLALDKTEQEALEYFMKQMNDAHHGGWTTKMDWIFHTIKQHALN

Consider `Oc1cccc(-c2nc(N3CCOCC3)c3sccc3n2)c1`, for which the share remaining (in general, what is left of the initial amount, in per cent) at 0.5 h, 10 µM in series [1] amounted to 32%; in series [2], 25%.

In the case of `COCCN(C)Cc1cc2nc(-c3cccc(O)c3)nc(N3CCOCC3)c2s1`, the kinetic solubility (commonly solubility judged after dilution from a stock solution rather than from solid) in series [3] was greater than 100 µM. For the same compound, the share remaining at 0.5 h, 10 µM came to 57% in series [1] and 13% in series [2].

As to `CN1CCN(Cc2cc3nc(-c4cccc5[nH]ncc45)nc(N4CCOCC4)c3s2)CC1`, the figures for the bioavailability in series [4] and in series [5] were 37% and 31%, respectively. Moreover, the amount remaining at 0.5 h, 10 µM in series [1] and in series [2] was 81% throughout.

Turning to `Cc1csc2c(N3CCOCC3)nc(-c3cccc(O)c3)nc12`, the negative logarithm of the IC50 (pIC50) (commonly −log10 of the IC50, conventionally taken in molar units) in series [6] was 7.68. Besides, the fraction remaining at 0.5 h, 10 µM was 51% in series [1] and 5% in series [2].

As for `CN(C)Cc1cc2nc(-c3cccc(O)c3)nc(N3CCOCC3)c2s1`, the bioavailability (usually the share of a dose that reaches the circulation, judged against a reference dose that is usually intravenous) in series [5] is 11%. For the same compound, the figures for the amount remaining at 0.5 h, 10 µM in series [1] and in series [2] were 74% and 32%, respectively.

In series [6], `c1cc2nc(-c3ccc4cn[nH]c4c3)nc(N3CCOCC3)c2s1` showed a pIC50 of 5.61.

The compound `Cc1cc2nc(-c3cccc(O)c3)nc(N3CCOCC3)c2s1` yielded a fraction remaining at 0.5 h, 10 µM in series [2] of 64%.

Take `OCCN1CCN(Cc2cc3nc(-c4cccc(O)c4)nc(N4CCOCC4)c3s2)CC1`: the solubility (kinetic) in series [3] is greater than 100 µM. Besides, the bioavailability worked out at 0% in series [4] and 7% in series [5]. For the same compound, the fraction remaining at 0.5 h, 10 µM in series [1] and in series [2] was 90% each time.

In series [3], `CN1CCN(Cc2cc3nc(-c4cccc(O)c4)nc(N4CCOCC4)c3s2)CC1` displayed a solubility (kinetic) greater than 100 µM. Further, the results for the bioavailability in series [4] and in series [5] were 2% and 10%, respectively. Besides, the amount remaining at 0.5 h, 10 µM in series [1] and in series [2] was 85% throughout.
